Read-outs that look alike come from different tables or passages of the source.
Assays:
[1] = target: T1, hrMAO-A (Homo sapiens, UniProt P21397); experiment: Inhibition of monoamine oxidase A (Amplex UltraRed, tyramine); format: biochemical
T1 construct: purchased Sigma–Aldrich
T1 sequence (P21397 1-527): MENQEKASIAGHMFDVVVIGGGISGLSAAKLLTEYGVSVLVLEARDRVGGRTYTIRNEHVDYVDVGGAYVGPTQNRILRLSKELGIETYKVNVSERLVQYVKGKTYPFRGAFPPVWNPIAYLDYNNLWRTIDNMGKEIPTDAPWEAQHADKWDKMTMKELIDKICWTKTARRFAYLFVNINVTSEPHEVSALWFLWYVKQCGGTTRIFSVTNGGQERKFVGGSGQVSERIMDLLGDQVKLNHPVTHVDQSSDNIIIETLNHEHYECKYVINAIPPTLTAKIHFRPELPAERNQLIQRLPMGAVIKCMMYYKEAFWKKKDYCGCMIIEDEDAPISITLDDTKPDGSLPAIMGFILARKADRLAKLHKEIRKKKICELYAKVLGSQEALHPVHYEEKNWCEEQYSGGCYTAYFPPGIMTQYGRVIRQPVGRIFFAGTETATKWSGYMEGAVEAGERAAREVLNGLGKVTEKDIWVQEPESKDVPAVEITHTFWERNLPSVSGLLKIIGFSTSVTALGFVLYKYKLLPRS

[2] = target: T2, hrMAO-B (Homo sapiens, UniProt P27338); experiment: Inhibition of monoamine oxidase B (Amplex UltraRed, tyramine); format: biochemical; conditions: for Selectivity Index (MAO-A/MAO-B): ratio IC50 MAO-A/IC50 MAO-B
T2 construct: purchased Sigma–Aldrich
T2 sequence (P27338 1-520): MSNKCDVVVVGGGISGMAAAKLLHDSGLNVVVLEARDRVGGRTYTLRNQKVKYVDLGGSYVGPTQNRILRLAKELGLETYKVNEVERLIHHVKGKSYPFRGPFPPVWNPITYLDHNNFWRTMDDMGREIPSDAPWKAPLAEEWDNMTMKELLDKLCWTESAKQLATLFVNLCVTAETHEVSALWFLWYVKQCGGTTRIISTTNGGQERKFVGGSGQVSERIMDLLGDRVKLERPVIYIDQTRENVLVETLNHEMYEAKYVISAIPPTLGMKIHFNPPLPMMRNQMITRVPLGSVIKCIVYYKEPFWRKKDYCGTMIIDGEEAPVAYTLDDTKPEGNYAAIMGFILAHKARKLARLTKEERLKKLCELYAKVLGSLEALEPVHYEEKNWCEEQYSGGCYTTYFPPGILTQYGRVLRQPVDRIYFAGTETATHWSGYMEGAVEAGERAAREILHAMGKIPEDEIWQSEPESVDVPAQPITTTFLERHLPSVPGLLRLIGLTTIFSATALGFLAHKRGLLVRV

[3] = test system: SH-SY5Y cells; experiment: Neuroprotection in SH-SY5Y against rotenone/oligomycin A (MTT); format: cell-based, human; conditions: compound 0.1 µM, 24 h pre- and 24 h co-incubation
Experimental: (§1) Cells were seeded at a density of 60,000 cells/well in 96-well transparent plates for 24 h. Then cells were pre-incubated with the corresponding compound at 0.1 μM. After 24 h, the medium was removed and replaced with 1% (v/v) FBS media containing the corresponding compound at 0.1 µM and the selected toxic stimuli, namely a mixture of rotenone and oligomycin A (R/O; 30/10 μM, respectively; Sigma–Aldrich, Spain) or 6-hydroxydopamine (100 µM; Sigma–Aldrich, Spain). […].

[4] = test system: IL-1β; experiment: IL-1β levels by ELISA in LPS stimulated primary mixed glial cultures; format: cell-based, rat; conditions: compound 10 μM; LPS 1 µg/mL 18 h
Experimental: Cells were cultured for 7–10 days before treatment.
Primary glial cells were pre-treated with compounds at the desired concentration for 24 h. Then, treatments were removed and glial cells were incubated with lipopolysaccharide (LPS, 1 μg/mL; Sigma–Aldrich, Spain) in the presence of each compound at the desired concentration for 18 h. Nitrite production was then assessed by modified Griess assay. Briefly, 150 µL of each sample was mixed with 75 µL of 4,4′-diamino-diphenylsulfone (Dapsone) and 75 µL of N-(1-naphthyl)ethylenediamine (Neda). The mixture was incubated at room temperature for 5 min. […] Data were normalized to basal conditions, setting this value as 100% of nitrite production. EC50 values were calculated from dose–response curves obtained from representing percentage of nitrites reduction vs. compound concentration.
Supernatants obtained from mixed primary glial cell cultures were used to determine IL-1β levels by quantitative ELISA kits (Preprotech, R&D Systems-bioNova, Madrid, Spain) following the manufacturer’s instructions. Commercial solution of IL-1β was used to generate a standard curve for sample quantification. Absorbance was measured in a microplate reader SPECTROstar Nano (BMG Labtech) at 405 with 650 nm correction.

[5] = test system: SH-SY5Y cells; experiment: Neuroprotection in SH-SY5Y against 6-hydroxydopamine (MTT); format: cell-based, human; conditions: 6-OHDA 100 µM; compound 0.1 µM, 24 h pre- and 24 h co-incubation
Experimental: as §1

[6] = Oxygen radical absorbance capacity (ORAC) assay; conditions: Trolox equivalents; AAPH, fluorescein
Experimental: The ORAC test was performed to evaluate the oxygen free radical scavenger capacity of the compounds. […] Compounds at desired concentrations (0.03, 0.1, 0.3, 1, 3, and 10 µM) were diluted in phosphate-buffered saline (PBS; 10 mM, pH 7.4) at 37 °C and placed in a 96 black flat bottom well plate. […] A fluorescence measurement was done first to determine the basal signal. Then, 25 µL of 2, 2′-azobis-amidinopropane dihydrochloride (AAPH) (12 mM final concentration) was quickly added. All samples were measured in duplicates in three different experiments. […] Results were expressed in terms of Trolox equivalents (T.eq.), obtained by plotting net AUC versus compound concentration, then performing linear regression and normalizing slopes of the compounds considering Trolox as reference.

[7] = test system: AREc32; conditions: MTT reduction
Experimental: AREc32 cells, shared by CR Wolf, were grown in Dulbecco’s modified Eagle medium (DMEM) with GlutaMAX (Gibco, Invitrogen, Madrid, Spain), supplemented with 10% (v/v) filtrated fetal bovine serum (FBS; Gibco, Invitrogen, Madrid, Spain), 1% of antibiotics penicillin-streptomycin, and geneticin (0.8 mg/mL G418; Gibco, Invitrogen, Madrid, Spain). […] They were recovered by centrifugation at 800 rpm for 10 min. Cells were used from the third to twelfth passage.
Basal absorbance was set to 100% and results were normalized to basal conditions.
Cytotoxicity. LD50 values in several cell cultures employed
Table S2. Cytotoxicity elicited by 10-18 compounds in SH-SY5Y, AREc32 and mixed pr imary glial cultures. Viability was measured as MTT reduction in presence of increasing concentrations of der ivatives. LD50 values were calcula ted from dose-response curves. Data are expr essed as mean ± SEM of at least 3 independent experiments.
1.3. PAMPA control compounds (BBB permeability)
Table S3. Pr ediction of the BBB passive permeability of control compounds

[8] = 30 min pre-incubation, 37 °C, read-out: IC50 MAO-A
[9] = 30 min pre-incubation, 37 °C, read-out: IC50 MAO-B

Row | SMILES | IC50 [1, 8] | IC50 [2, 9] | R/O (30/10 µM) Protection (%) [3] | IL-1β Levels % Reduction (10 μM) [4] | 6-OHDA Protection (%) [5] | ORAC (T. eq.) [6] | LD50 (µM) AREc32 [7] | IC50 [1] | IC50 [2] | Selectivity Index (MAO-A/MAO-B) [2] | MAO isozyme selectivity ([2]; MAO-B vs MAO-A)
1 | C#CCN(CC#C)CCc1c[nH]c2ccc(OC(=O)C=Cc3ccccc3)cc12 [Compound 14, 3-(2-(Di(prop-2-yn-1-yl)amino)ethyl)-1H-indol-5-yl Cinnamate] | 56.6 ± 6.3 µM | 17 ± 1.6 µM | 53.3% | 41.1 ± 1.7% | 71.7% | 1.98 ± 0.15 T. eq. | > 30 µM |  |  |  | 
2 | C#CCN(CC#C)CCc1c[nH]c2ccc(OC)cc12 [Compound 13, N-(2-(5-Methoxy-1H-indol-3-yl)ethyl)-N-(prop-2-yn-1-yl)prop-2-yn-1-amine] |  |  | 42.7% | 67.4 ± 5.80% | 87.4% | 2.09 ± 0.11 T. eq. | > 30 µM | > 100 µM | 89.1 ± 4.3 µM | >1.12 | 
3 | C#CCN(CC#C)CCc1c[nH]c2ccc(OC(=O)/C=C/c3ccc(C)cc3)cc12 [Compound 15, 3-(2-(Di(prop-2-yn-1-yl)amino)ethyl)-1H-indol-5-yl-(E)-3-(p-tolyl) Acrylate] | > 100 µM | 28.1 ± 0.6 µM | 36.4% | 60.5 ± 3.50% | 41.5% | 1.74 ± 0.10 T. eq. | > 30 µM |  |  |  | 
4 | C#CCNCCc1c[nH]c2ccc(OC)cc12 [Compound 10, N-(2-(5-Methoxy-1H-indol-3-yl)ethyl)prop-2-yn-1-amine] |  |  | 44.6% | 68.4 ± 4.9% | 83.5% | 2.47 ± 0.13 T. eq. | > 30 µM | 0.826 ± 0.11 µM | 77.6 ± 9.1 µM | 0.0106 | MAO-A selectivity
